Measured values reported in patent publication US20160166560A1, “Urea Compounds and Their Use as FAAH Enzyme Inhibitors” (BIAL-PORTELA & Cª, S.A., priority 2013, published 2016).
Where a name gives a salt, the structure may show the parent alone.

Tests used:
FAAH [1] = biological target: T1, FAAH (Mus musculus, UniProt O08914); assay: In vitro/ex vivo FAAH activity determination in brain after intra-tracheal instillation; set-up: Liver and brain fragments were removed and processed for enzymatic activity determination; from tissue; species or system male NMRI mice; settings: remaining enzymatic activity vs controls, 1 mg/kg intra-tracheal instillation, sacrificed after 8 h
T1 sequence (O08914 1-579): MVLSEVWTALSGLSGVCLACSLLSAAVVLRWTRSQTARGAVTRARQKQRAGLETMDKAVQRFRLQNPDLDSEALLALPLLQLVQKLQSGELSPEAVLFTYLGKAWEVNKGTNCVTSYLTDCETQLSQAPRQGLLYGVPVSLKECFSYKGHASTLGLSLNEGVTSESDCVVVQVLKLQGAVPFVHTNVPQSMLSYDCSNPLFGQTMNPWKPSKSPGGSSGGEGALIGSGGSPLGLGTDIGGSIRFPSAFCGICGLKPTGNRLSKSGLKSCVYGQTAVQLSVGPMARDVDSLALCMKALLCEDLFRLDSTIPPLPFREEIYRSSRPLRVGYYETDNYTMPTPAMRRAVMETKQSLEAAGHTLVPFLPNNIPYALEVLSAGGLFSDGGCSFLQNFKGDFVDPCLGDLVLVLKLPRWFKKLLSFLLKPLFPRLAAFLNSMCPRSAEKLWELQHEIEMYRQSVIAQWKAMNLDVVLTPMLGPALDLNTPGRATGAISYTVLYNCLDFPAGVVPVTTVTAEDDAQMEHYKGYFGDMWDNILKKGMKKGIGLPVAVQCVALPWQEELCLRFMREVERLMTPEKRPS
Method: (§1) To evaluate the selectivity of test compounds in inhibiting FAAH activity, male NMRI mice were administrated following instillation with 1 mg/kg compound and were sacrificed after 8 h treatment. Liver and brain fragments were removed and processed for enzymatic activity determination.
(§2) FAAH activity was measured as the amount of ^3H-ethanolamine formed, by liquid scintillation counting, from the hydrolysis of the substrate anandamide (AEA, labeled with ^3H on the ethanolamine part of the molecule). The percentage of remaining enzymatic activity was calculated in respect to controls and after blank subtraction. Therefore, a low value for the test compounds indicates a strong inhibitor.
(§3) Male NMRI mice (body weight range: 25-35 g) were obtained from Harlan Laboratories (Barcelona, Spain). Animals were kept 10 per cage, under controlled environmental conditions (12 hr light [8 am]/12 hr dark [8 pm]cycle; room temperature 22±1° C.). Food and tap water were allowed ad libitum. Animals were habituated to the animal facilities at least for a week prior to experiments. The experiments were all carried out during daylight hours.
(§4) Animals were fasted overnight before administration of compounds. […] After administration the animals were given atipamezole (1 mg/kg) to reverse the sedative and analgesic effects induced by the anaesthesia.
(§5) Fifteen minutes before sacrifice, animals were anesthetized with pentobarbital 60 mg/kg administrated intra-peritoneally. The brain (without cerebellum) and a fragment of liver were collected into plastic vials containing membrane buffer (3 mM MgCl2, 1 mM EDTA, 50 mM Tris HCl, pH 7.4). Glass beads (2.5 mm BioSpec Products, Bartlesville, Okla., USA) were added to the vials containing the brain and liver tissues. Tissues were stored at −20° C. until analysis.
(§6) Anandamide [ethanolamine-1-^3H-] was obtained from American Radiochemicals—with a specific activity of 60 Ci/mmol. All other reagents were obtained from Sigma-Aldrich. Optiphase Supermix was obtained from Perkin Elmer.
(§7) Brain and liver tissues were thawed and homogenized in 10 volumes of membrane buffer (3 mM MgCl2, 1 mM EDTA, 50 mM Tris HCl, pH 7.4) with homogenizer Precellys 24 Dual Tissue Homogenizer (Bertin Technologies) for 2 cycles of 5 sec (5000 rpm).
(§8) Total protein in the tissue homogenates was determined with the BioRad Protein Assay (BioRad) using a standard curve of BSA ([…]). Tissue homogenates were diluted to appropriate concentration for enzymatic determination in assay buffer (1 mM EDTA, 10 mM Tris HCl, pH 7.6).
(§9) Reaction mix (total volume 200 μL) contained 2 μM AEA (2 μM AEA+5 nM ^3H-AEA), 0.1% fatty acid free BSA, 15 μg (brain) or 5 μg (liver) protein, in assay buffer (1 mM EDTA, 10 mM Tris pH 7.6).
(§10) The test compound was used at a level of 1 mg/kg protein. After 15 minutes pre-incubation at 37° C. of the protein sample, reaction was started by the addition of the substrate solution (cold AEA+radiolabelled AEA+BSA). Reaction was carried out for 12 minutes for brain and liver tissues. Reaction was terminated by addition of 400 μL chloroform:methanol (1:1, v/v) solution. Reaction samples were vortex twice, left on ice for 5 minutes and then centrifuged in the microfuge for 7 minutes, 7000 rpm. 200 μL of the obtained supernatants were added to […] Optiphase Supermix scintillation cocktail previously distributed in 24-well plates.
(§11) Counts per minute (cpm) were determined in a Microbeta TriLux scintillation counter. In each assay blank samples (without protein) were prepared.

FAAH [2] = biological target: T1, FAAH; assay: In vitro/ex vivo FAAH activity determination in liver after intra-tracheal instillation; set-up: Liver and brain fragments were removed and processed for enzymatic activity determination; from tissue; host or cells: mouse liver fragment homogenate; species or system male NMRI mice; settings: remaining enzymatic activity vs controls, 1 mg/kg intra-tracheal instillation, sacrificed after 8 h
Method: as §1, §2, §3, §4, §5, §6, §7, §8, §9, §10, §11

CYPs = CYPs metabolic stability assay in HLM (human liver microsomes); type: in vitro ADME; settings: HLM 1 mg/ml protein, compound 5 μM, 60 min, 37° C.; for Control (% remain): absence of NADPH; for CYP+ (% remain): with NADPH 1 mM
Method: Stability of the test compounds was performed in HLM (human liver microsomes) in the presence and in the absence of NADPH.
The stability was measured using the incubation mixture (100 μl total volume) contained 1 mg/ml total protein, MgCl2 5 mM and 50 mM K-phosphate buffer. Samples were incubated in the presence and in the absence of NADPH 1 mM. Reactions were pre-incubated 5 min and the reaction initiated with the compound under test (at a concentration of 5 μM). Samples were incubated for 60 min in a shaking water bath at 37° C. The reaction was stopped by adding 100 μl of acetonitrile. Samples were then centrifuged, filtered and supematant injected in HLPC-MSD. Test compounds were dissolved in DMSO and the final concentration of DMSO in the reaction was below 0.5% (v/v). At T0 acetonitrile was added before adding the compound. All experiments were performed with samples in duplicate.

FAAH Activity - Brain itc (% C) (FAAH [1]) | FAAH Activity - Liver itc (% C) (FAAH [2]) | Control (% remain) (CYPs) | CYP+ (% remain) (CYPs) | FAAH Activity - Brain itc (% C) (FAAH [1]; maleate, 1 mg/kg) | FAAH Activity - Liver itc (% C) (FAAH [2]; maleate, 1 mg/kg) | FAAH Activity - Brain itc (% C) (FAAH [1]; methanesulfonate, 1 mg/kg) | FAAH Activity - Liver itc (% C) (FAAH [2]; methanesulfonate, 1 mg/kg) | SMILES
97.6 | 10.5 | 79.6 | 79.5 |  |  |  |  | CN(C(=O)n1cnc(-c2cccc(OS(N)(=O)=O)c2)c1)C1CCN(c2ccc(Br)c(O)c2)CC1 [Example 29, 3-(1-((1-(4-bromo-3-hydroxyphenyl)piperidin-4-yl)(methyl)carbamoyl)-1 H-imidazol-4-yl)phenyl sulfamate hydrochloride]
104.7 | 5.7 | 100 | 77.3 |  |  |  |  | COc1ccc(CN2CCC(N(C)C(=O)n3cnc(-c4cccc(NS(C)(=O)=O)c4)c3)CC2)cc1OC [Example 5, N-(1-(3,4-dimethoxybenzyl)piperidin-4-yl)-N-methyl-4-(3-(methylsulfonamido)phenyl)-1H-imidazole-1-carboxamide hydrochloride]
91.1 | 3.0 | 94.4 | 87.1 |  |  |  |  | CN(C(=O)n1cnc(-c2cccc(OS(N)(=O)=O)c2)c1)C1CCN(c2ccc(O)cc2)CC1 [Example 15, 3-(1-((1-(4-hydroxyphenyl)piperidin-4-yl)(methyl)carbamoyl)-1H-imidazol-4-yl)phenyl sulfamate hydrochloride]
96.5 | 6.0 |  |  |  |  |  |  | COc1ccccc1CN1CCC(N(C)C(=O)n2cnc(-c3cccc(C(N)=O)c3)c2)CC1 [Example 38, 4-(3-carbamoylphenyl)-N-(1-(2-methoxybenzyl)piperidin-4-yl)-N-methyl-1H-imidazole-1-carboxamide hydrochloride]
124.3 | 12.4 | 97.7 | 81.4 |  |  |  |  | COc1ccc(CN2CCC(N(C)C(=O)n3cnc(-c4cccc(NC(N)=O)c4)c3)CC2)cc1OC [Example 26, N-(1-(3,4-dimethoxybenzyl)piperidin-4-yl)-N-methyl-4-(3-ureidophenyl)-1H-imidazole-1-carboxamide hydrochloride]
107.2 | 3.9 | 102.5 | 62.8 |  |  |  |  | COc1cc(CN2CCC(N(C)C(=O)n3cnc(-c4cccc(OS(N)(=O)=O)c4)c3)CC2)cc(OC)c1.Cl [Example 9, 3-(1-((1-(3,5-dimethoxybenzyl)piperidin-4-yl)(methyl)carbamoyl)-1H-imidazol-4-yl)phenyl sulfamate hydrochloride]
 |  |  |  |  |  | 113.8 | 10.7 | CN(C(=O)n1cnc(-c2cccc(NC(N)=O)c2)c1)C1CCN(Cc2ccccc2)CC1 [Example 22, N-(1-benzylpiperidin-4-yl)-N-methyl-4-(3-ureidophenyl)-1H-imidazole-1-carboxamide methanesulfonate]
110.2 | 3.4 |  |  |  |  |  |  | CN(C(=O)n1cnc(-c2cccc(C(N)=O)c2)c1)C1CCN(c2ccccc2O)CC1 [Example 37, 4-(3-carbamoylphenyl)-N-(1-(2-hydroxyphenyl)piperidin-4-yl)-N-methyl-1H-imidazole-1-carboxamide hydrochloride]

Second part, the molecule before the results:

SMILES | FAAH Activity - Brain itc (% C) (FAAH [1]) | FAAH Activity - Liver itc (% C) (FAAH [2]) | Control (% remain) (CYPs) | CYP+ (% remain) (CYPs) | FAAH Activity - Brain itc (% C) (FAAH [1]; maleate, 1 mg/kg) | FAAH Activity - Liver itc (% C) (FAAH [2]; maleate, 1 mg/kg) | FAAH Activity - Brain itc (% C) (FAAH [1]; methanesulfonate, 1 mg/kg) | FAAH Activity - Liver itc (% C) (FAAH [2]; methanesulfonate, 1 mg/kg)
COc1cccc(CN2CCC(N(C)C(=O)n3cnc(-c4cccc(NS(N)(=O)=O)c4)c3)CC2)c1.O=C(O)/C=C\C(=O)O.O=C(O)/C=C\C(=O)O [Example 20, N-(1-(3-methoxybenzyl)piperidin-4-yl)-N-methyl-4-(3-(sulfamoylamino)phenyl)-1H-imidazole-1-carboxamide dimaleate] | 86.4 | 15.8 |  |  |  |  |  | 
COc1cccc(CN2CCC(N(C)C(=O)n3cnc(-c4cccc(C(N)=O)c4)c3)CC2)c1 [Example 13, 4-(3-carbamoylphenyl)-N-(1-(3-methoxybenzyl)piperidin-4-yl)-N-methyl-1H-imidazole-1-carboxamide hydrochloride] |  |  | 103.5 | 25.1 |  |  |  | 
CN(C(=O)n1cnc(-c2cccc(OS(N)(=O)=O)c2)c1)C1CCN(c2ccccc2)CC1 [Example 6, 3-(1-(methyl(1-phenylpiperidin-4-yl)carbamoyl)-1H-imidazol-4-yl)phenyl sulfamate hydrochloride] | 82.1 | 1.7 | 88.7 | 12.0 |  |  |  | 
CN(C(=O)n1cnc(-c2cccc(NS(C)(=O)=O)c2)c1)C1CCN(c2ccc(O)cc2)CC1 [Example 24, N-(1-(4-hydroxyphenyl)piperidin-4-yl)-N-methyl-4-(3-(methylsulfonamido)phenyl)-1H-imidazole-1-carboxamide hydrochloride] | 92.6 | 5.7 | 91.5 | 76.2 |  |  |  | 
COc1cc(CN2CCC(N(C)C(=O)n3cnc(-c4ccc(OS(N)(=O)=O)cc4)c3)CC2)cc(OC)c1 [Example 19, 4-(1-((1-(3,5-dimethoxybenzyl)piperidin-4-yl)(methyl)carbamoyl)-1H-imidazol-4-yl)phenyl sulfamate maleate] |  |  |  |  | 99.2 | 9.2 |  | 
CN(C(=O)n1cnc(-c2cccc(C(N)=O)c2)c1)C1CCN(Cc2ccccc2O)CC1 [Example 36, 4-(3-carbamoylphenyl)-N-(1-(2-hydroxybenzyl)piperidin-4-yl)-N-methyl-1 H-imidazole-1-carboxamide hydrochloride] | 94.4 | 8.6 |  |  |  |  |  | 
